Experimental data published in ChEMBL document CHEMBL1817545, “Synthesis and molecular modeling of 1H-pyrrolopyrimidine-2,4-dione derivatives as ligands for the α1-adrenoceptors” (Bioorg Med Chem, 2011).
pKi: −log10 of the molar value.

Molecular target: T1, 5-hydroxytryptamine receptor 1A (Rattus norvegicus, UniProt P19327)
T1 sequence (P19327 whole entry): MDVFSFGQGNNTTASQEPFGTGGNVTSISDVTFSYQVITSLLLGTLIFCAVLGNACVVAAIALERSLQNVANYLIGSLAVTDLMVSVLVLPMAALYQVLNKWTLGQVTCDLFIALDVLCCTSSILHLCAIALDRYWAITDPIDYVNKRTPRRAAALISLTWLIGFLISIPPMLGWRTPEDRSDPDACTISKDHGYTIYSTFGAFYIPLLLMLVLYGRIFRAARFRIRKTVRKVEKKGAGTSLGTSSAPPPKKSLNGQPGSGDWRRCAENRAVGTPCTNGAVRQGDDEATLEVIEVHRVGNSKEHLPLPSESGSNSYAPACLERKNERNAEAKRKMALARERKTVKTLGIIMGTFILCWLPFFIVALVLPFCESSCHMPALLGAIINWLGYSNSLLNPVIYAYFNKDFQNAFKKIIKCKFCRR
Assay: Displacement of [3H]-8-OH-DPAT from 5HT1A in CRL:CD(SD)BR-COBS rat brain hippocampus after 30 mins by liquid scintillation spectrometry
Format: tissue-based

| SMILES | pKi |
| --- | --- |
| O=c1[nH]c2c(-c3ccc(Cl)cc3)c[nH]c2c(=O)n1CCN1CCN(c2ccccc2Cl)CC1 | < 5.00 |
| O=c1[nH]c2c(-c3ccccc3Cl)c[nH]c2c(=O)n1CCN1CCN(c2ccccc2Cl)CC1 | 7.09 |
| COc1ccccc1N1CCN(CCn2c(=O)c3cc(-c4ccccc4)[nH]c3n(Cc3ccccc3)c2=O)CC1 | 6.70 |
| O=c1[nH]c2[nH]c(-c3ccc(OCCOc4ccccc4)cc3)cc2c(=O)n1CCN1CCN(c2ccccc2Cl)CC1 | < 5.00 |
| Cc1ccc(-c2c[nH]c3c(=O)n(CCN4CCN(c5ccccc5Cl)CC4)c(=O)[nH]c23)cc1 | < 5.00 |
| COc1ccccc1N1CCN(CCn2c(=O)[nH]c3[nH]c(-c4ccc(OCCOc5ccccc5)cc4)cc3c2=O)CC1 | < 5.00 |

Now from value to compound:

| pKi | SMILES |
| --- | --- |
| 6.11 | COc1ccccc1N1CCN(CCn2c(=O)[nH]c3[nH]c(-c4ccc(OCc5ccccc5)cc4)cc3c2=O)CC1 |
| 7.37 | O=c1[nH]c2c(-c3ccccc3)c[nH]c2c(=O)n1CCN1CCN(c2ccccc2Cl)CC1 |
| 7.54 | COc1ccccc1N1CCN(CCn2c(=O)[nH]c3cc(-c4ccco4)[nH]c3c2=O)CC1 |
| 7.19 | CC(C)(C)c1cc2[nH]c(=O)n(CCN3CCN(c4ccccc4Cl)CC3)c(=O)c2[nH]1 |
| 7.33 | COc1ccccc1N1CCN(CCn2c(=O)[nH]c3cc(C(C)(C)C)[nH]c3c2=O)CC1 |
| 6.40 | COc1ccccc1N1CCN(CCn2c(=O)[nH]c3[nH]c(-c4ccc(Cl)cc4)cc3c2=O)CC1 |

Molecular target: T2, Adrenergic receptor alpha-1 (Rattus norvegicus, UniProt P15823+P23944+P43140)
T2 sequence (P15823 whole entry): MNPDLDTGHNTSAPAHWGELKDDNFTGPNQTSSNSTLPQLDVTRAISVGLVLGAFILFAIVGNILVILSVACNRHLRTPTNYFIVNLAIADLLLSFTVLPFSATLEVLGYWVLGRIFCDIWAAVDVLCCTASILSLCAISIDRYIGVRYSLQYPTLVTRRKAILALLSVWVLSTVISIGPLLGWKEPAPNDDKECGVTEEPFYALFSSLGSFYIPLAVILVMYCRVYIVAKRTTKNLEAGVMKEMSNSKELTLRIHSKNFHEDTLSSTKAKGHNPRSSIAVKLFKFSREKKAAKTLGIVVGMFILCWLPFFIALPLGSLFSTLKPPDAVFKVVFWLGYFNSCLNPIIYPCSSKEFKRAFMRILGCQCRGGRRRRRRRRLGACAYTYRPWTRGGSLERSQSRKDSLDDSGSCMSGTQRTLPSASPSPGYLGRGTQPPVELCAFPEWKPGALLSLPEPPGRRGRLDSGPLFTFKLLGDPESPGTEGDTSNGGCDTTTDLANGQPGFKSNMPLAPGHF
T2 sequence (P23944 whole entry): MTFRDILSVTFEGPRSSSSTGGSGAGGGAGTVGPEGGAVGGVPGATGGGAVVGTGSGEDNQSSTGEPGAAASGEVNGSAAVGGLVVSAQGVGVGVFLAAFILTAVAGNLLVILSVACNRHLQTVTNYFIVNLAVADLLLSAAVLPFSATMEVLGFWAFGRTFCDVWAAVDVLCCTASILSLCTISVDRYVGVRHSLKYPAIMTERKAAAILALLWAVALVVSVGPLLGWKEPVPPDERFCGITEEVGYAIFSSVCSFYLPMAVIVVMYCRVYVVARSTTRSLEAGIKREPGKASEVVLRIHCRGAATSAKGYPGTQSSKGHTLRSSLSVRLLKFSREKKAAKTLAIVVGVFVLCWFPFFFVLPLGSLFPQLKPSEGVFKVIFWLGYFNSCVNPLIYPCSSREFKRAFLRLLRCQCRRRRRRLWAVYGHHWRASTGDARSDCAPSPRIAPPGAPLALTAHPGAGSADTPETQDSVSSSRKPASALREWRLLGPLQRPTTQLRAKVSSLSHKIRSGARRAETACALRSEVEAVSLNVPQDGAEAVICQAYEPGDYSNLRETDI
T2 sequence (P43140 whole entry): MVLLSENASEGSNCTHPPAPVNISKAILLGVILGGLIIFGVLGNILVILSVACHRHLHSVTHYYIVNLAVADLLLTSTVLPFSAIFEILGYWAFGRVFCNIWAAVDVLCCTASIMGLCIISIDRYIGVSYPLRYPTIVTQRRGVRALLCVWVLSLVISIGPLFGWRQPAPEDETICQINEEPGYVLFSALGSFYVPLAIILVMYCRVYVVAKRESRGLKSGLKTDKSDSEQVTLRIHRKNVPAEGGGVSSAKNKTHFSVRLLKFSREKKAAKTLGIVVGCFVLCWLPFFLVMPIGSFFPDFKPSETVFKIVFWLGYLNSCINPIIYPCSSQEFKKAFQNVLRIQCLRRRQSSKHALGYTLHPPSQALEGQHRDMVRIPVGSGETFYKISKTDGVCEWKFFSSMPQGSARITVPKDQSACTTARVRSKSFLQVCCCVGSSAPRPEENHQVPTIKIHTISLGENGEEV
Assay: Displacement of [3H]prazosin from alpha1-ARs in CRL:CD(SD)BR-COBS rat brain cortex after 30 mins by liquid scintillation spectrometry

| SMILES | Ki [nM] |
| --- | --- |
| O=c1[nH]c2c(-c3ccc(Cl)cc3)c[nH]c2c(=O)n1CCN1CCN(c2ccccc2Cl)CC1 | 2.71 |
| O=c1[nH]c2c(-c3ccccc3Cl)c[nH]c2c(=O)n1CCN1CCN(c2ccccc2Cl)CC1 | 1.14 |
| COc1ccccc1N1CCN(CCn2c(=O)c3cc(-c4ccccc4)[nH]c3n(Cc3ccccc3)c2=O)CC1 | 24.5 |
| O=c1[nH]c2[nH]c(-c3ccc(OCCOc4ccccc4)cc3)cc2c(=O)n1CCN1CCN(c2ccccc2Cl)CC1 | 126 |
| Cc1ccc(-c2c[nH]c3c(=O)n(CCN4CCN(c5ccccc5Cl)CC4)c(=O)[nH]c23)cc1 | 4.96 |
| COc1ccccc1N1CCN(CCn2c(=O)[nH]c3[nH]c(-c4ccc(OCCOc5ccccc5)cc4)cc3c2=O)CC1 | 53.63 |

The next lines start with the values.

| Ki [nM] | SMILES |
| --- | --- |
| 10.31 | COc1ccccc1N1CCN(CCn2c(=O)[nH]c3[nH]c(-c4ccc(OCc5ccccc5)cc4)cc3c2=O)CC1 |
| 1.14 | O=c1[nH]c2c(-c3ccccc3)c[nH]c2c(=O)n1CCN1CCN(c2ccccc2Cl)CC1 |
| 3.38 | COc1ccccc1N1CCN(CCn2c(=O)[nH]c3cc(-c4ccco4)[nH]c3c2=O)CC1 |
| 1.39 | CC(C)(C)c1cc2[nH]c(=O)n(CCN3CCN(c4ccccc4Cl)CC3)c(=O)c2[nH]1 |
| 1.69 | COc1ccccc1N1CCN(CCn2c(=O)[nH]c3cc(C(C)(C)C)[nH]c3c2=O)CC1 |
| 4.08 | COc1ccccc1N1CCN(CCn2c(=O)[nH]c3[nH]c(-c4ccc(Cl)cc4)cc3c2=O)CC1 |

Species: Rattus norvegicus
Assay: Ratio of Ki for CRL:CD(SD)BR-COBS rat brain hippocampus 5HT1A to Ki for CRL:CD(SD)BR-COBS rat brain cortex alpha1-AR
Format: tissue-based

| SMILES | Ratio Ki |
| --- | --- |
| O=c1[nH]c2c(-c3ccc(Cl)cc3)c[nH]c2c(=O)n1CCN1CCN(c2ccccc2Cl)CC1 | > 3500 |
| O=c1[nH]c2c(-c3ccccc3Cl)c[nH]c2c(=O)n1CCN1CCN(c2ccccc2Cl)CC1 | 71.5 |
| COc1ccccc1N1CCN(CCn2c(=O)c3cc(-c4ccccc4)[nH]c3n(Cc3ccccc3)c2=O)CC1 | 8.08 |
| O=c1[nH]c2[nH]c(-c3ccc(OCCOc4ccccc4)cc3)cc2c(=O)n1CCN1CCN(c2ccccc2Cl)CC1 | > 79 |
| Cc1ccc(-c2c[nH]c3c(=O)n(CCN4CCN(c5ccccc5Cl)CC4)c(=O)[nH]c23)cc1 | > 2000 |
| COc1ccccc1N1CCN(CCn2c(=O)[nH]c3[nH]c(-c4ccc(OCCOc5ccccc5)cc4)cc3c2=O)CC1 | > 186 |

The remaining lines, values ahead:

| Ratio Ki | SMILES |
| --- | --- |
| 76 | COc1ccccc1N1CCN(CCn2c(=O)[nH]c3[nH]c(-c4ccc(OCc5ccccc5)cc4)cc3c2=O)CC1 |
| 37.8 | O=c1[nH]c2c(-c3ccccc3)c[nH]c2c(=O)n1CCN1CCN(c2ccccc2Cl)CC1 |
| 8.54 | COc1ccccc1N1CCN(CCn2c(=O)[nH]c3cc(-c4ccco4)[nH]c3c2=O)CC1 |
| > 1000 | COc1ccccc1N1CCN(CCn2c(=O)[nH]c3cc(-c4ccc(Cl)cc4)[nH]c3c2=O)CC1 |
| 46.9 | CC(C)(C)c1cc2[nH]c(=O)n(CCN3CCN(c4ccccc4Cl)CC3)c(=O)c2[nH]1 |
| 27.7 | COc1ccccc1N1CCN(CCn2c(=O)[nH]c3cc(C(C)(C)C)[nH]c3c2=O)CC1 |
| > 800 | O=c1[nH]c2cc(-c3ccc(Cl)cc3)[nH]c2c(=O)n1CCN1CCN(c2ccccc2Cl)CC1 |
| 98.4 | COc1ccccc1N1CCN(CCn2c(=O)[nH]c3[nH]c(-c4ccc(Cl)cc4)cc3c2=O)CC1 |
